Results reported in ChEMBL document CHEMBL1153677, “A novel series of 2-aminotetralins with high affinity and selectivity for the dopamine D3 receptor” (Bioorg Med Chem Lett, 1997).

Assays:
[1] = target: D(2) dopamine receptor (Homo sapiens, UniProt P14416); test: Displacement of [125I]iodosulpiride from human Dopamine receptor D2 expressed in CHO cells; format: cell-based
[2] = target: D(3) dopamine receptor (Homo sapiens, UniProt P35462); test: Displacement of [125I]iodosulpiride from human Dopamine receptor D3 expressed in CHO cells; format: cell-based
D(3) dopamine receptor, sequence (P35462 whole entry): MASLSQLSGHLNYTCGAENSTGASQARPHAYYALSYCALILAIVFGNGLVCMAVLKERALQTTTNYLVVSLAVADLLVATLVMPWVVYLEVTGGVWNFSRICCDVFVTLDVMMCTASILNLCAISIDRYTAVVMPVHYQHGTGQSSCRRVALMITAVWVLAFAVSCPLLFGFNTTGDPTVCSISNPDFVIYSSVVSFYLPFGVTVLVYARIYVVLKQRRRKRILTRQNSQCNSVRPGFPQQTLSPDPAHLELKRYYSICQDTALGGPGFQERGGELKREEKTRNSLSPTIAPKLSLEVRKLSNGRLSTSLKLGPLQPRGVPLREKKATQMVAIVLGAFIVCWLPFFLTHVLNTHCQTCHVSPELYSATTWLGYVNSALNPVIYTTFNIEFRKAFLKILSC

[3] = target: T1, 5-hydroxytryptamine receptor 1A (Mus musculus, UniProt Q64264); test: Ability to displace [125I]iodosulpiride from 5-hydroxytryptamine 1A receptor
T1 sequence (Q64264 whole entry): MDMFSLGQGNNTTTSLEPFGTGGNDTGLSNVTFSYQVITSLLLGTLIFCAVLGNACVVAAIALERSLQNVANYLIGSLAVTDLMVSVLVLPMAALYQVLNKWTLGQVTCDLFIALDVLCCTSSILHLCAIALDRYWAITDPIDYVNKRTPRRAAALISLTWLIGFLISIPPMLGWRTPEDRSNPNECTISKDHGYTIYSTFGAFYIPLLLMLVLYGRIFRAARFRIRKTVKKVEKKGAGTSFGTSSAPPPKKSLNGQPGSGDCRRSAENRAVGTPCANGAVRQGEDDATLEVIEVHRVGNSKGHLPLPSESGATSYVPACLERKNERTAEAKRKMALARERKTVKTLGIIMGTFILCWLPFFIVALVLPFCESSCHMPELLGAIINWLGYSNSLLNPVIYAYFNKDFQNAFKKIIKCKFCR

D(2) dopamine receptor, sequence (P14416 whole entry): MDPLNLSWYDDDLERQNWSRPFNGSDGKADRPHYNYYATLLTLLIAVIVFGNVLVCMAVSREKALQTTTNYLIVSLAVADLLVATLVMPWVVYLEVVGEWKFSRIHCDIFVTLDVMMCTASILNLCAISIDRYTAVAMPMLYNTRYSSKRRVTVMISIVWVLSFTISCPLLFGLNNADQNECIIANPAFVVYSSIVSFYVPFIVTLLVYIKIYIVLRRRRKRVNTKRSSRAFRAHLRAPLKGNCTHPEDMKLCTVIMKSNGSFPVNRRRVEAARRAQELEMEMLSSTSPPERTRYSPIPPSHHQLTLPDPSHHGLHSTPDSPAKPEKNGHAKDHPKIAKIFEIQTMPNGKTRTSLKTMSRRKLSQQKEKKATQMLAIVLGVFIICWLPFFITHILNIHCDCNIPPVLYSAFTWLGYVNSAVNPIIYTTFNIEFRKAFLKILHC

Ki [1]	Ki [2]	Ki [3]	SMILES
251 nM	1.26 nM		CCCN(CCCCNC(=O)c1ccc(-c2ccccc2)cc1)C1CCc2c(cccc2OS(C)(=O)=O)C1 (stereo not given)
		3.16 nM	COc1ccccc1N1CCN(CCCCNC(=O)c2ccc(-c3ccc(C(C)=O)cc3)cc2)CC1
100 nM	0.501 nM		CCCN(CCCCNC(=O)c1ccc(-c2ccccc2)cc1)C1CCc2c(C#N)cccc2C1 (stereo not given)
398 nM	1.58 nM		CCCN(CCCCNC(=O)c1ccc(-c2ccccc2)cc1)C1CCc2c(Cl)cccc2C1 (stereo not given)
398 nM	1.58 nM		CCCN(CCCCNC(=O)c1ccc(-c2ccccc2)cc1)C1CCc2c(cccc2OS(=O)(=O)C(F)(F)F)C1 (stereo not given)
316 nM	12.6 nM		COc1cccc2c1CCC(N(C)CCCCNC(=O)c1ccc(-c3ccccc3)cc1)C2 (stereo not given)
126 nM	2.51 nM		CN(CCCCNC(=O)c1ccc(-c2ccccc2)cc1)C1CCc2c(O)cccc2C1 (stereo not given)
631 nM	3.98 nM		CCCN(CCCCNC(=O)c1ccc(-c2ccccc2)cc1)C1CCc2c(cccc2C(N)=O)C1 (stereo not given)
251 nM	1.26 nM		CCCN(CCCCNC(=O)c1ccc(-c2ccccc2)cc1)C1CCc2c(Br)cccc2C1 (stereo not given)
316 nM	1.58 nM		CCCN(CCCCNC(=O)c1ccc(-c2ccccc2)cc1)C1CCc2ccccc2C1 (stereo not given)
794 nM	2.51 nM		CCCN(CCCCNC(=O)c1ccc(-c2ccccc2)cc1)C1CCc2c(cccc2OCC2CC2)C1 (stereo not given)
126 nM	0.794 nM		CCCN(CCCCNC(=O)c1ccc(-c2ccccc2)cc1)C1CCc2c(cccc2OC)C1 (stereo not given)

SMILES	Ki [1]	Ki [2]	Ki [3]
CCCN(CCCCNC(=O)c1ccc(-c2ccccc2)cc1)C1CCc2c(O)cccc2C1 (stereo not given)	25.1 nM	0.2 nM	
